Data as given in PubChem BioAssay AID248 (DTP/NCI, 2004).
Where “and” joins values, the source holds several entries; their conditions need not be identical. Equal values may be shown once. Inconclusive results and toxic doses are left out. Cut-off read from the data, not from the text of the source: active = T/C of 150% or more; inactive = T/C below 125%.

Tested on: L1210 leukemia ip in BDF1 mice, survival T/C
Assay: NCI In Vivo Anticancer Drug Screen. Data for tumor model L1210 Leukemia (intraperitoneal) in B6D2F1 (BDF1) mice
Conditions: endpoint: mean survival time, higher = longer survival
Summary of the method: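 Transplanted-tumor mice were given test agent; controls received vehicle only. Survival readings from the two groups were divided (treated over control).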

[1] = dose: 100.0 mg/kg/injection, schedule: Q04DX002 (ip), vehicle: saline with Tween-80
[2] = dose: 200.0 mg/kg/injection, schedule: Q04DX002 (ip), vehicle: saline with Tween-80
[3] = dose: 400.0 mg/kg/injection, schedule: Q04DX002 (ip), vehicle: saline with Tween-80
[4] = dose: 100.0 mg/kg/injection, schedule: Q01DX001 (ip), vehicle: carboxymethylcellulose (CMC)
[5] = dose: 200.0 mg/kg/injection, schedule: Q01DX001 (ip), vehicle: carboxymethylcellulose (CMC)
[6] = dose: 400.0 mg/kg/injection, schedule: Q01DX001 (ip), vehicle: carboxymethylcellulose (CMC)
[7] = dose: 100.0 mg/kg/injection, schedule: Q04DX003 (ip), vehicle: saline with Tween-80
[8] = dose: 200.0 mg/kg/injection, schedule: Q04DX003 (ip), vehicle: saline with Tween-80
[9] = dose: 400.0 mg/kg/injection, schedule: Q04DX003 (ip), vehicle: saline with Tween-80
[10] = dose: 50.0 mg/kg/injection, schedule: Q04DX002 (ip), vehicle: saline with Tween-80
[11] = dose: 100.0 mg/kg/injection, schedule: Q04DX003 (ip), vehicle: saline
[12] = dose: 200.0 mg/kg/injection, schedule: Q04DX003 (ip), vehicle: saline
[13] = dose: 400.0 mg/kg/injection, schedule: Q04DX003 (ip), vehicle: saline

Measured: T/C

CC1OC(C2COC(C)(C)O2)C2OCOC12 (centres undefined)
inactive: [1] 100 % of control | [2] 100 % of control | [3] 100 % of control

CN(C)N=Nc1ccc(CCCC(=O)NN)cc1
inactive: dose: 18.0 mg/kg/injection, schedule: Q01DX009 (ip), vehicle: other 103 % of control | dose: 22.0 mg/kg/injection, schedule: Q01DX Z (ip), vehicle: carboxymethylcellulose (CMC) 114 % of control | dose: 28.0 mg/kg/injection, schedule: Q01DX009 (ip), vehicle: other 111 % of control | [4] 111 % of control | [5] 113 % of control

CCOC(=O)CC(O)(c1ccc(OC)cc1)c1ccc(OC)cc1
inactive: [4] 92 % of control | [5] 97 % of control | [6] 95 % of control

O=C(/C=C(\c1ccccc1)c1ccc([N+](=O)[O-])cc1)Nc1ccc(S(=O)(=O)F)cc1
inactive: [7] 96 % of control | [8] 91 % of control | [9] 96 % of control

O=C(SC(=S)NCCNC(=S)SC(=O)c1ccccc1)c1ccccc1
inactive: [10] 95 % of control | [1] 87 % of control | [2] 98 % of control

C[Si](C)(c1ccc(C(=O)Cl)cc1)c1ccc(C(=O)Cl)cc1
inactive: [1] 96 % of control | [2] 96 % of control | [3] 100 % of control

O=C1OC(=O)C2CC3OC3CC12 (centres undefined)
inactive: dose: 50.0 mg/kg/injection, schedule: Q01DX001 (ip), vehicle: saline sonified 106 % of control | dose: 100.0 mg/kg/injection, schedule: Q01DX001 (ip), vehicle: saline sonified 96 % of control | [7] 91 % of control | dose: 200.0 mg/kg/injection, schedule: Q01DX001 (ip), vehicle: saline sonified 93 % of control | [8] 94 % of control | [9] 108 % of control

O=c1ccsc(=S)[nH]1
inactive: dose: 100.0 mg/kg/injection, schedule: Q01DX001 (ip), vehicle: saline with Tween-80 101 % of control | dose: 200.0 mg/kg/injection, schedule: Q01DX001 (ip), vehicle: saline with Tween-80 104 % of control | dose: 400.0 mg/kg/injection, schedule: Q01DX001 (ip), vehicle: saline with Tween-80 97 % of control

O=C(O)C1CC1C(=O)c1ccccc1 (centres undefined)
inactive: dose: 25.0 mg/kg/injection, schedule: Q01DX001 (ip), vehicle: Klucel (hydroxypropylcellulose) (HPC) 98 % of control | dose: 50.0 mg/kg/injection, schedule: Q01DX001 (ip), vehicle: Klucel (hydroxypropylcellulose) (HPC) 97 % of control | dose: 100.0 mg/kg/injection, schedule: Q01DX001 (ip), vehicle: Klucel (hydroxypropylcellulose) (HPC) 96 % of control and 98 % of control | dose: 200.0 mg/kg/injection, schedule: Q01DX001 (ip), vehicle: Klucel (hydroxypropylcellulose) (HPC) 86 % of control | dose: 400.0 mg/kg/injection, schedule: Q01DX001 (ip), vehicle: Klucel (hydroxypropylcellulose) (HPC) 103 % of control

O=CCc1ccc2c(c1)OCO2
inactive: [5] 92 % of control | [6] 108 % of control

CCOC(=O)C1CC(=O)c2c1ccc1ccccc21 (centres undefined)
inactive: dose: 75.0 mg/kg/injection, schedule: Q01DX001 (ip), vehicle: other 105 % of control | dose: 150.0 mg/kg/injection, schedule: Q01DX001 (ip), vehicle: other 97 % of control | dose: 300.0 mg/kg/injection, schedule: Q01DX001 (ip), vehicle: other 96 % of control

Cc1nc2c(=O)[nH]c(=O)[nH]c2[nH]c1=O
inactive: dose: 16.0 mg/kg/injection, schedule: Q01DX Z (ip), vehicle: methylcellulose (MC) 89 % of control | dose: 31.0 mg/kg/injection, schedule: Q01DX Z (ip), vehicle: methylcellulose (MC) 95 % of control | dose: 62.0 mg/kg/injection, schedule: Q01DX Z (ip), vehicle: methylcellulose (MC) 93 % of control | dose: 100.0 mg/kg/injection, schedule: Q01DX001 (ip), vehicle: other 96 % of control | dose: 100.0 mg/kg/injection, schedule: Q04DX003 (ip), vehicle: other 100 % of control | dose: 125.0 mg/kg/injection, schedule: Q01DX Z (ip), vehicle: methylcellulose (MC) 101 % of control | dose: 200.0 mg/kg/injection, schedule: Q01DX001 (ip), vehicle: other 102 % of control | dose: 200.0 mg/kg/injection, schedule: Q04DX003 (ip), vehicle: other 111 % of control | dose: 400.0 mg/kg/injection, schedule: Q01DX001 (ip), vehicle: other 102 % of control | dose: 400.0 mg/kg/injection, schedule: Q04DX003 (ip), vehicle: other 107 % of control

Cc1cc2c(cc1C)NC(=O)C(C)CN2 (centres undefined)
inactive: dose: 100.0 mg/kg/injection, schedule: Q01DX009 (ip), vehicle: Klucel (hydroxypropylcellulose) (HPC) 103 % of control | dose: 100.0 mg/kg/injection, schedule: Q04DX003 (ip), vehicle: Klucel (hydroxypropylcellulose) (HPC) 98 % of control | dose: 200.0 mg/kg/injection, schedule: Q01DX009 (ip), vehicle: Klucel (hydroxypropylcellulose) (HPC) 108 % of control | dose: 200.0 mg/kg/injection, schedule: Q04DX003 (ip), vehicle: Klucel (hydroxypropylcellulose) (HPC) 103 % of control | dose: 400.0 mg/kg/injection, schedule: Q01DX009 (ip), vehicle: Klucel (hydroxypropylcellulose) (HPC) 95 % of control | dose: 400.0 mg/kg/injection, schedule: Q04DX003 (ip), vehicle: Klucel (hydroxypropylcellulose) (HPC) 101 % of control

C/C(=N\N=C(/C)c1ccc(O)cc1)c1ccc(O)cc1
inactive: dose: 50.0 mg/kg/injection, schedule: Q01DX009 (ip), vehicle: saline with Tween-80 96 % of control | dose: 100.0 mg/kg/injection, schedule: Q01DX009 (ip), vehicle: saline with Tween-80 92 % of control | dose: 200.0 mg/kg/injection, schedule: Q01DX009 (ip), vehicle: saline with Tween-80 89 % of control

COC1OC(CO)C(O)C1n1cnc2c(N)ncnc21 (centres undefined)
inactive: dose: 25.0 mg/kg/injection, schedule: Q01DX001 (ip), vehicle: saline 90 % of control | dose: 50.0 mg/kg/injection, schedule: Q01DX001 (ip), vehicle: saline 106 % of control | dose: 100.0 mg/kg/injection, schedule: Q01DX001 (ip), vehicle: saline 103 % of control

Nc1ccc(C(F)(F)F)cc1[N+](=O)[O-]
inactive: dose: 100.0 mg/kg/injection, schedule: Q04DX002 (ip), vehicle: saline 118 % of control | dose: 200.0 mg/kg/injection, schedule: Q04DX002 (ip), vehicle: saline 103 % of control | dose: 400.0 mg/kg/injection, schedule: Q04DX002 (ip), vehicle: saline 107 % of control

CC1=NCCN=C(C)C1
inactive: [11] 96 % of control | [12] 98 % of control | [13] 112 % of control

COC(=O)c1c2ccccc2[n+](C)c2ccccc12
inactive: dose: 12.5 mg/kg/injection, schedule: Q04DX003 (ip), vehicle: saline 96 % of control | dose: 25.0 mg/kg/injection, schedule: Q04DX003 (ip), vehicle: saline 100 % of control | dose: 50.0 mg/kg/injection, schedule: Q04DX003 (ip), vehicle: saline 102 % of control

C=CCOc1c(Br)cc(Br)cc1Br
inactive: dose: 12.5 mg/kg/injection, schedule: Q04DX002 (ip), vehicle: Klucel (hydroxypropylcellulose) (HPC) 96 % of control | dose: 25.0 mg/kg/injection, schedule: Q04DX002 (ip), vehicle: Klucel (hydroxypropylcellulose) (HPC) 100 % of control | dose: 50.0 mg/kg/injection, schedule: Q04DX002 (ip), vehicle: Klucel (hydroxypropylcellulose) (HPC) 86 % of control | dose: 100.0 mg/kg/injection, schedule: Q04DX002 (ip), vehicle: Klucel (hydroxypropylcellulose) (HPC) 95 % of control | dose: 200.0 mg/kg/injection, schedule: Q04DX002 (ip), vehicle: Klucel (hydroxypropylcellulose) (HPC) 89 % of control | dose: 400.0 mg/kg/injection, schedule: Q04DX002 (ip), vehicle: Klucel (hydroxypropylcellulose) (HPC) 95 % of control

CC(=O)NC1CCC(/C=C(\C#N)C2CCC([N+](=O)[O-])CC2)CC1 (centres undefined)
inactive: dose: 25.0 mg/kg/injection, schedule: Q04DX002 (ip), vehicle: saline with Tween-80 97 % of control | [10] 94 % of control | [1] 94 % of control | [2] 86 % of control | [3] 104 % of control

CC(=O)Nc1ccc(S(=O)(=O)Nc2cc(C)ns2)cc1
inactive: [11] 92 % of control | [12] 96 % of control | [13] 100 % of control
